Results as given in patent US8927280B2, “Compositions and methods for promoting the generation of definitive endoderm” (President and Fellows of Harvard College, priority 2009, dated 2015).

Legend:
[1] = tested on: gut tube of E8.75 mouse embryos; assay: Injection of compound induced endoderm into gut tube of E8.75 mouse embryos, ex vivo embryo culture; format: in vivo; conditions: for incorporation of induced endodermal cells into gut tube (in words): FoxA2, Cldn6 and YFP staining; for embryos in which induced cells integrated into the gut: cells treated 6 days, injected into E8.75 embryos, 24-30 hrs ex vivo culture
Method: Mouse E8.5 ICR embryos were dissected in Hanks Balanced Salt Solution and cultured in the DMEM/F12 (Invitrogen) media supplemented with 50% rat serum (Valley Biomedical), penicillin, streptomycin, glutamine at 37° C. for 20-24 hrs. The YFP mouse ES cells were cultured in the presence of hit compounds for 6 days to induce endoderm formation and then cells were dissociated with trypsin and approx. 100 000 cells were injected into gut tube of E8.75 embryos. Following injections, embryos were transferred to rotating bottle culture unit and were then cultured in media (1.5-2 ml per embryo) as above under humidified conditions at 40% O2, 5% CO2, 55% N2, and 37° C. After 30 hrs culture, embryos were fixed in 4% paraformaldehyde in PBS, embedded in tissue-tek and cryosections were stained with antibodies against Cld6, FoxA2 an YFP.
For chemically derived endoderm to be useful, it is important to determine its developmental potential, beyond the expression of endodermal markers. The ultimate goal is to direct the cells to form functional beta cells. To begin to address this possibility and functional potential of derived populations, mouse ES cells ubiquitously expressing enhanced yellow fluorescent protein (EYFP) (Hadjantonakis et al., 2002) were induced to form endoderm with IDE1, IDE2, or DMSO (control). At day 6 of treatment, the inventors dissociated and injected the cells into the gut tube (a derivative of endoderm) of live E8.75 embryos. The lumen of the gut tube can be accessed prior to the completion of embryonic turning and gut tube closure and therefore provides a developmental window for functional assessment of ES-derived endoderm cells. Chemically derived endoderm was injected into the primitive gut tube at the anterior and posterior intestinal portals. At this time the gut tube is still open and anterior intestinal portal is accessible (FIG. 6A). The embryos were cultured ex vivo for 24-30 hrs during which time the lateral walls of the embryonic gut fold ventrally and the gut tube closes, around E9.5. […] Cells induced by IDE1 treatment integrated into the gut, in 8 out of 35 cases, and in 7 out of 29 embryos for IDE2. Conversely, DMSO (control) treated cells never integrate into the developing gut tube (0/10 and 0/11, respectively) and instead remain in the lumen (FIG. 6B).

[2] = tested on: human ES cells (HUES 4 and 8); assay: Sox17 endoderm induction in human ES cells; format: cell-based; conditions: for dose dependence of Sox17 expression: HUES 4 and 8; for percent of cells expressing Sox17: HUES cells, 4 days, IDE1 100 nM, IDE2 200 nM
Method: Human embryonic stem cell lines were cultured essentially as described {Cowan, 2004 #6}. Briefly, HUES4, HUES8 and HUES9 cells are routinely cultured on irradiated CF-1 MEF feeder cells in KnockOut DMEM (Gibco) supplemented with 10% KnockOut Serum Replacement (Gibco), 10% human plasma (Invitrogen), 2 mM L-glutamine (L-Glu, Gibco), 1.1 mM 2-mercaptoethanol (Gibco), 1 mM nonessential amino acids (Gibco), 1× penicillin/streptomycin (PS, Gibco) and 10 ng/ml bFGF (Invitrogen). Cells are split at the ratio of 1:10-1:12 every 4-5 days by using 1 mg/ml collagenase type IV. To induce endoderm formation, HUES cells was cultured on MEF feeder cells till 80-90% confluent, then treated with 100 ng/ml Activin A in advanced RPMI (Gibco) supplemented with 1×L-Glu and 0.2% FBS (Gibco), or with combination of 25 ng/ml Wnt3a (R&D systems)+100 ng/ml Activin A (R&D systems) or were exposed to compounds in the same media. At days 4 and 6 of culture cells were analysed for endodermal marker expression, Sox17.
Cells were fixed in 4% paraformaldehyde (Sigma) in PBS for 20 min at 4° C. followed by a wash with PBS. Cells were blocked with 10% donkey serum (Jackson Immunoresearch) in PBS/0.1% Triton X and incubated with primary antibodies overnight at 4° C. Secondary antibodies were incubated for 1 h at room temperature. The following antibodies and dilutions were used: goat anti-SOX17, (1:500 R&D systems); rabbit anti-PDX1 (1:200, Chemicon), rabbit anti-FoxA2 (1:500; Upstate), rabbit anti-Dab2 (1:200, Santa Cruz), rabbit anti-SPARC (1:200, Santa Cruz,), mouse anti-AFP (1:100, Sigma), anti-Gata6 (1:50, Santa Cruz Biotech), goat anti-HNF6 (1:200, Santa Cruz Biotech), rabbit anti-RFP/DsRed (1:300, MBL), rabbit anti-GFP (1:200, Molecular Probes). Secondary antibodies were: rhodamine Red-X-conjugated donkey anti-goat antibody, 1:200 (JIRL), Alexa-488-conjugated goat anti-mouse and Alexa-594-conjugated goat anti-rabbit antibodies (1:300, Molecular Probes). Nuclei were visualized by Hoechst 33342 (1:1000, Molecular Probes). Images were taken using an Olympus IX70 Microscope. For quantification images were analyzed for the frequency of SOX17+, FoxA2+ or Pdx1+ cells using Metamorph image analysis software (Molecular Devices) and at least 6 images per well were collected. Data were confirmed in four independent experiments.

| Structure (SMILES) | incorporation of induced endodermal cells into gut tube (in words) [1] | embryos in which induced cells integrated into the gut [1] | dose dependence of Sox17 expression [2] | percent of cells expressing Sox17 [2] |
| --- | --- | --- | --- | --- |
| O=C(O)CCCCCC(=O)N/N=C/c1ccccc1C(=O)O [IDE1] | incorporate into gut tube and show expression of gut tube markers | 8 out of 35 | dose-depended manner | 62±8.1% |
| O=C(O)CCCCCC(=O)NN=C1CCCC1 [IDE2] | incorporate into gut tube and show expression of gut tube markers | 7 out of 29 | dose-depended manner | 57±6.7% |
